The record followed here is ChEMBL document CHEMBL4184308, “Melanogenesis inhibitory pregnane glycosides from Cynanchum atratum” (Bioorg Med Chem Lett, 2018).

A word on the IC50: it is the midpoint of a concentration-inhibition curve.

Structures are written as SMILES. Active and inactive are the calls of the source. The calls are words filed in the database; no cut-off is given here. Some results are limits rather than exact numbers.

The first experiment deals with B16. As to the kind of experiment: Inhibition of melanin production in alpha-MSH-stimulated mouse B16 cells incubated for 24 hrs followed by alpha-MSH stimulation for 72 hrs in presence of compound. It counts as functional, cell-based.
For the molecule `CO[C@H]1[C@@H](O)[C@H](O[C@H]2CC[C@@]3(C)C(=CC[C@H]4C(=O)O[C@@H]5CO[C@]6(C)OC=C(CC[C@@H]43)[C@H]56)C2)O[C@H](C)[C@H]1O[C@H]1C[C@H](OC)[C@H](O)[C@H](C)O1`, the IC50 was 19 µM and the inhibition entry was “Dose-dependent effect”.
As for `CO[C@H]1C[C@H](O[C@@H]2CC3=CC[C@H]4C(=O)[C@@](C)(C5=CC(=O)O[C@H]5C)CC[C@@H]4[C@@]3(C)C[C@H]2O)O[C@H](C)[C@H]1O`, the half-inhibitory concentration (IC50) is over 50 µM.
Turning to `CO[C@H]1C[C@H](O[C@@H]2[C@H](C)O[C@@H](O[C@H]3[C@@H](OC)C[C@H](O[C@@H]4CC5=CC[C@H]6C(=O)[C@@](C)(C7=CC(=O)O[C@H]7C)CC[C@@H]6[C@@]5(C)C[C@H]4O)O[C@@H]3C)C[C@@H]2OC)O[C@H](C)[C@H]1O`, the IC50 was 21 µM and the inhibition result was “Dose-dependent effect”.
With `CO[C@H]1O[C@@]2(C)OC[C@H]3OC(=O)[C@@H]4CC=C5C[C@@H](O[C@@H]6O[C@H](C)[C@@H](O)[C@H](OC)[C@H]6O)CC[C@]5(C)[C@H]4C/C=C/1[C@H]32`, the IC50 stood at 41 µM.
The same measure, in the same setting: the figure for `CO[C@@H]1[C@@H](O)[C@H](O[C@H]2CC[C@@]3(C)C(=CC[C@H]4C(=O)O[C@@H]5CO[C@]6(C)OC(=O)/C(=C/C[C@@H]43)[C@H]56)C2)O[C@H](C)[C@H]1O` is over 50 µM.
As for `CO[C@H]1[C@@H](O)[C@H](O[C@H]2CC[C@@]3(C)C(=CC[C@H]4C(=O)O[C@@H]5CO[C@]6(C)OC=C(CC[C@@H]43)[C@H]56)C2)O[C@H](C)[C@H]1O[C@H]1C[C@H](OC)[C@H](O[C@H]2C[C@H](OC)[C@H](O)[C@@H](C)O2)[C@H](C)O1`, the IC50 came to 4 µM and the inhibition entry was “Dose-dependent effect”.
Take `CO[C@H]1C[C@H](O[C@@H]2[C@H](C)O[C@@H](O[C@H]3[C@@H](OC)C[C@H](O[C@@H]4CC5=CC[C@H]6C(=O)[C@@](C)(C7=CC(=O)O[C@@H]7C)CC[C@@H]6[C@@]5(C)C[C@H]4O)O[C@@H]3C)C[C@@H]2OC)O[C@H](C)[C@H]1O`: the IC50 turned out to be 33 µM and the inhibition result is “Dose-dependent effect”.

The next experiment addresses T1, Tyrosinase (Mus musculus) (UniProt P11344).
T1 sequence (whole entry): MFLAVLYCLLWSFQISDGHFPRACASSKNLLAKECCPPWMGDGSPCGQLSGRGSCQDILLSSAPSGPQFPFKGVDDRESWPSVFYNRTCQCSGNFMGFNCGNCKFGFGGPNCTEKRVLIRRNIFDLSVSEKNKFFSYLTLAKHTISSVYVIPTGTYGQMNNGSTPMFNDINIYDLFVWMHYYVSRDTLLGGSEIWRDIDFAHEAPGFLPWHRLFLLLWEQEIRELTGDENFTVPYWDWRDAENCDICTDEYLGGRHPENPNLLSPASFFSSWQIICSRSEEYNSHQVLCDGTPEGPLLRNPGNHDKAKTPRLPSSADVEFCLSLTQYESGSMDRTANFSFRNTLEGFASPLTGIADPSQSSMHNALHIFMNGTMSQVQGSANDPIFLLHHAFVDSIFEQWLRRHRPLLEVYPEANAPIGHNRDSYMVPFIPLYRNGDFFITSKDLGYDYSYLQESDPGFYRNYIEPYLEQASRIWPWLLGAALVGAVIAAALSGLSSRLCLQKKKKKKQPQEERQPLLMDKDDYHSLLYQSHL
Nature of the experiment: Inhibition of mouse tyrosinase.
As to `CC(=O)c1c(O)cccc1O`, the inhibition entry was “Active”.
`CC(=O)c1cc(O)ccc1O`: the inhibition entry was “Active”.

Another experiment has as its target T1, Tyrosinase (Mus musculus). Nature of the experiment: Inhibition of mouse B16 cells derived tyrosinase at 30 uM.
On to `CO[C@H]1C[C@H](O[C@@H]2[C@H](C)O[C@@H](O[C@H]3[C@@H](OC)C[C@H](O[C@@H]4CC5=CC[C@H]6C(=O)[C@@](C)(C7=CC(=O)O[C@H]7C)CC[C@@H]6[C@@]5(C)C[C@H]4O)O[C@@H]3C)C[C@@H]2OC)O[C@H](C)[C@H]1O`, for which the inhibition result is “inactive”.
